The test system of one series is Escherichia coli. Briefly: Antimicrobial activity against Escherichia coli ATCC 25922 assessed as reduction in microbial growth measured after 24 hrs by CLSI based broth microdilution method. Type of series: functional.
A further series relates to Erythrocyte. Nature of the series: Hemolytic activity in human erythrocytes incubated for 1 hr by ELISA reader analysis. Type of series: toxicity, cell-based.

Square brackets hold non-standard residues; d marks the D form. Peptide text beside a SMILES is read from it. 2Nal = N[C@@H](Cc1ccc2ccccc2c1)C(=O)O; Aoc(2) = CCCCCC[C@H](N)C(=O)O; Orn = NCCC[C@H](N)C(=O)O; Dab = NCC[C@H](N)C(=O)O; Dap = NC[C@H](N)C(=O)O

As a reminder, the MIC is the lowest concentration that inhibits growth of the organism. As for `CC[C@H](C)[C@H](NC(=O)[C@H](CCCNC(=N)N)NC(=O)[C@H](CCCCN)NC(=O)[C@H](CC(C)C)NC(=O)[C@H](C)NC(=O)CN)C(=O)N[C@@H](CCCCN)C(=O)N[C@H](C(=O)N[C@@H](CC(C)C)C(=O)N[C@@H](C)C(N)=O)[C@@H](C)O` (H-GALKRIKTLA-NH2), the MIC in the series on Escherichia coli stood at 50 µM. This molecule also returned an HC10 in the series with Erythrocyte above 500 µM.

Take `CC(C)C[C@H](NC(=O)[C@H](C)NC(=O)CN)C(=O)N[C@@H](CCCCN)C(=O)N[C@@H](CCCNC(=N)N)C(=O)N[C@@H](Cc1ccc2ccccc2c1)C(=O)N[C@@H](CCCCN)C(=O)N[C@H](C(=O)N[C@@H](CC(C)C)C(=O)N[C@@H](C)C(N)=O)[C@@H](C)O` (H-GALKR[2Nal]KTLA-NH2): the MIC with Escherichia coli is above 200 µM. The molecule further showed an HC10 with Erythrocyte above 500 µM.

With `CC[C@H](C)[C@H](NC(=O)[C@H](CCCNC(=N)N)NC(=O)[C@H](CCCCN)NC(=O)[C@H](CC(C)C)NC(=O)[C@H](CC(C)C)NC(=O)CN)C(=O)N[C@@H](CCCCN)C(=O)N[C@@H](CO)C(=O)N[C@@H](CC(C)C)C(=O)N[C@@H](CC(C)C)C(N)=O` (H-GLLKRIKSLL-NH2), the MIC in the series with Escherichia coli was determined as 100 µM. For the same molecule, the HC10 in the series on Erythrocyte was above 500 µM.

For the molecule `CC[C@H](C)[C@H](NC(=O)[C@H](CCCNC(=N)N)NC(=O)[C@H](CO)NC(=O)[C@H](CC(C)C)NC(=O)[C@H](CC(C)C)NC(=O)CN)C(=O)N[C@@H](CCCCN)C(=O)N[C@H](C(=O)N[C@@H](CC(C)C)C(=O)N[C@@H](CC(C)C)C(N)=O)[C@@H](C)O` (H-GLLSRIKTLL-NH2), in the series with Escherichia coli, the MIC stood at 100 µM. The same molecule showed an HC10 with Erythrocyte above 500 µM.

`CC[C@H](C)[C@H](NC(=O)[C@H](CCCNC(=N)N)NC(=O)[C@@H](NC(=O)[C@H](CC(C)C)NC(=O)[C@H](CC(C)C)NC(=O)CN)[C@@H](C)O)C(=O)N[C@@H](CCCCN)C(=O)N[C@H](C(=O)N[C@@H](CC(C)C)C(=O)N[C@@H](CC(C)C)C(N)=O)[C@@H](C)O` (H-GLLTRIKTLL-NH2): the MIC with Escherichia coli came out at 200 µM. This molecule came in with an HC10 in the series on Erythrocyte above 500 µM.

With `CC[C@H](C)[C@H](NC(=O)[C@H](CCCNC(=N)N)NC(=O)[C@H](CCN)NC(=O)[C@H](CC(C)C)NC(=O)[C@H](CC(C)C)NC(=O)CN)C(=O)N[C@@H](CCCCN)C(=O)N[C@H](C(=O)N[C@@H](CC(C)C)C(=O)N[C@@H](CC(C)C)C(N)=O)[C@@H](C)O` (H-GLL[Dab]RIKTLL-NH2), the minimal inhibitory concentration (MIC) with Escherichia coli turned out to be 75 µM. This molecule returned an HC10 in the series on Erythrocyte above 500 µM.

On to `CC[C@H](C)[C@H](NC(=O)[C@H](CCCNC(=N)N)NC(=O)[C@H](CCN)NC(=O)[C@H](CC(C)C)NC(=O)[C@H](CC(C)C)NC(=O)CN)C(=O)N[C@@H](CCCCN)C(=O)N[C@@H](CCN)C(=O)N[C@@H](CC(C)C)C(=O)N[C@@H](CC(C)C)C(N)=O` (H-GLL[Dab]RIK[Dab]LL-NH2), for which the MIC in the series with Escherichia coli is above 200 µM. In the series with Erythrocyte, this molecule registered an HC10 above 500 µM.

With `CC[C@H](C)[C@H](NC(=O)[C@H](CCCNC(=N)N)NC(=O)[C@H](CN)NC(=O)[C@H](CC(C)C)NC(=O)[C@H](CC(C)C)NC(=O)CN)C(=O)N[C@@H](CCCCN)C(=O)N[C@H](C(=O)N[C@@H](CC(C)C)C(=O)N[C@@H](CC(C)C)C(N)=O)[C@@H](C)O` (H-GLL[Dap]RIKTLL-NH2), the MIC in the series on Escherichia coli is 100 µM. This molecule also registered an HC10 in the series with Erythrocyte above 500 µM.

For the molecule `CC[C@H](C)[C@H](NC(=O)[C@H](CCCNC(=N)N)NC(=O)[C@H](CCCN)NC(=O)[C@H](CC(C)C)NC(=O)[C@H](CC(C)C)NC(=O)CN)C(=O)N[C@@H](CCCCN)C(=O)N[C@H](C(=O)N[C@@H](CC(C)C)C(=O)N[C@@H](CC(C)C)C(N)=O)[C@@H](C)O` (H-GLL[Orn]RIKTLL-NH2), the MIC in the series on Escherichia coli came out at 100 µM. For the same molecule, the HC10 in the series with Erythrocyte was above 500 µM.

`CCCCCC[C@H](NC(=O)[C@H](CCCCCC)NC(=O)[C@@H](NC(=O)[C@H](CCCCN)NC(=O)[C@@H](NC(=O)[C@H](CCCNC(=N)N)NC(=O)[C@H](CCCCN)NC(=O)[C@H](CCCCCC)NC(=O)[C@H](CCCCCC)NC(=O)CN)[C@@H](C)CC)[C@@H](C)O)C(N)=O` (H-G[Aoc(2)][Aoc(2)]KRIKT[Aoc(2)][Aoc(2)]-NH2): the HC10 in the series with Erythrocyte worked out at 20 µM.

For the origin of these results see ChEMBL document CHEMBL5608163, “Structure modification of anoplin for fighting resistant bacteria” (Eur J Med Chem, 2024).
